Laboratory results reported in patent US20170224667A1, “CANCER CHEMOPREVENTIVE AGENT” (KDL, Inc., priority 2014, published 2017).

What was measured:
[1] = tested on: malignant glioma cells; details: non-patent document 4; cited from earlier work
[2] = tested on: fibrosis caused by pancreatic cancer; details: non-patent document 5; cited from earlier work
[3] = tested on: lung cancer in patients with idiopathic pulmonary fibrosis; assay: Lung cancer prevention in idiopathic pulmonary fibrosis patients allocated to pirfenidone or non-pirfenidone group; assay type: in vivo, human; details: for Accumulated incidence of lung cancer: FIG. 1; for Effect on risk of incidence of lung cancer: logistic regression analysis
Text: Thus, the present inventors evaluated the cancer chemoprevention effect of pirfenidone in idiopathic pulmonary fibrosis patients who are said to have a high risk factor of carcinogenesis. […] This efficacy was not explained by its effectiveness on idiopathic pulmonary fibrosis, and is therefore a novel activity of pirfenidone.
87 in the pirfenidone group (83 idiopathic pulmonary fibrosis, four nonspecific interstitial pneumonia) and 232 in the non-pirfenidone group (213 idiopathic pulmonary fibrosis, 18 nonspecific interstitial pneumonia, and one patient of desquamative interstitial pneumonia). The patients in the pirfenidone group received pirfenidone for 12-75 months (an average of 27.9±14.7 months). As a result, the incidence of lung cancer in the pirfenidone group was 2, whereas in the non-pirfenidone group it was 49. The duration of observation period in the pirfenidone group was 65.5±42.6 months, whereas in the control group it was 57.1±37.5 months. In addition, among 73 deaths in the non-pirfenidone group, 11 (4.7%) patients died by lung cancer, whereas among 29 deaths in the pirifenidone group, one (1.2%) patient died by lung cancer.
The accumulated incidences of lung cancer in patients with idiopathic pulmonary fibrosis not treated with pirfenidone after 1, 5, and 10 years were 0.9%, 18.3%, and 26.8%, whereas in patients treated with pirfenidone after 1, 5, and 10 years the accumulated incidences of lung cancer were 0%, 2.5%, and 6.4%.
The risk factors of incidence of lung cancer were analyzed using logistic regression analysis. As for the variables, backgrounds such as age, sex, number of packs of cigarettes smoked per day by the number of years the person has smoked (pack year), current smoking, pulmonary emphysema, stage of idiopathic pulmonary fibrosis, lung functions (% vital capacity(VC), and forced expiratory volume in 1 second as percent of forced vital capacity; FEV 1%), respiratory function (carbon monoxide lung diffusing capacity; % DLCO), and arterial oxygen partial pressure (PAO2); home oxygen therapy (use/no use), pirfenidone (use/no use), prednisolone (use/no use), N-acetyl cysteine (use/no use) and so forth were used. […] Then, the factors affecting the incidence of lung cancer were analyzed using multivariate Cox proportion hazard mode. Four variables were found as affecting factors. […] This supports the lung cancer protective efficacy of pirfenidone.

[4] = tested on: acute exacerbation in patients with idiopathic pulmonary fibrosis; details: pre-treatment; non-patent document 6; cited from earlier work

SMILES: Cc1ccc(=O)n(-c2ccccc2)c1 [Pirfenidone, 5-methyl-1-phenyl-2-(1H)-pyridone]
- Proliferation of malignant glioma cells [1]: inhibited proliferation
- Effect on fibrosis caused by pancreatic cancer [2]: inhibitory effects on fibrosis
- Death by cancer (lung cancer), % ([3]; 87 patients in pirfenidone group): 1.1%
- Death by cancer (lung cancer), % ([3]; 87 patients in pirfenidone group, listed as pirifenidone): 1.2%
- Incidence of lung cancer, % ([3]; 87 patients in pirfenidone group, observation 65.5 ± 42.6 months, treatment 12-75 months): 2.3%
- Accumulated incidence of lung cancer ([3]; after 1 year): 0%
- Accumulated incidence of lung cancer ([3]; after 5 years): 2.5%
- Accumulated incidence of lung cancer ([3]; after 10 years): 6.4%
- Effect on risk of incidence of lung cancer ([3]; use/no use): significantly decrease the risk factors of incidence of lung cancer
- Effect on risk of lung cancer ([3]; multivariate Cox proportion hazard model, in words): only factor decreasing the risk of lung cancer
- Hazard ratio, risk of lung cancer ([3]; multivariate Cox proportion hazard model, use/no use): 0.128
- Acute exacerbation caused by lung cancer surgery [4]: acute exacerbation was inhibited

SMILES: CC(=O)N[C@@H](CS)C(=O)O [N-acetyl cysteine]
- Effect on risk of incidence of lung cancer ([3]; use/no use): significantly decrease the risk factors of incidence of lung cancer
